Read-outs that look alike come from different tables or passages of the source. Numbered stars: 1 amine (or outer) side, 2 acyl side, 3 side chain; on linkers, the order of the positions; unused ones are H or OH. Bridge positions count the residues as written; N and C are the ends. Square brackets hold non-standard residues; d marks the D form. Peptide text beside a SMILES is read from it. * marks the point of attachment. Leu(3R-OH,Nα-propionyl) = CCC(=O)N[C@H](C(=O)*)[C@H](O)C(C)C; X1 = CC(C)[C@@H](O[*:3])[C@H](N[*:1])C(=O)[*:2]; NMeT = CN[C@H](C(=O)O)[C@@H](C)O; dPhLac = O=C(O)[C@H](O)Cc1ccccc1; NMeA = CN[C@@H](C)C(=O)O; NMeDha = C=C(NC)C(=O)O
Key:
[1] = system: hippocampal and cortical neurons; assay: Ca^2+ imaging (Fura-8 AM) in primary neuronal cultures; format: cell-based, mice; details: for elevation of [Ca^2+] / percentage of tested cells that responded to carbachol: 300 μM carbachol
Experimental: Primary neuronal cells were plated onto precoated cover slides at a density of 5 × 10^5 and maintained at 37 °C in a 5% CO2 humidified atmosphere. On DIV7, cells were loaded with the calcium-sensitive dye Fura-8 AM; 3 µM Fura-8 was added to normal growth medium and the cells incubated at 37 °C for 30 min. Cells were then washed and incubated with HBSS with or without 1 µM FR900359 for 30 min. Coverslips were then placed into a microscope chamber containing HBSS and assays were performed as described previously ([46]).

D3 dopamine receptor = system: D3 dopamine receptor; design: method as in PMID 28522847; details: ref [40]; cited from earlier work
chemokine CXCR4 = details: ref [10], [41]; cited from earlier work
muscarinic receptor = assay: [^3H]NMS binding on intact primary neuronal cells; design: species or system mice; details: read-out: dissociation constant (Kd) of the radioligand
Experimental: Primary neuronal cells were seeded at a density of 5 × 10^4 cells/well onto a 96-well plate and maintained at 37 °C in a 5% CO2 humidified atmosphere. On the sixth day in vitro, cells were washed twice with binding buffer (110 mM NaCl, 5.4 mM KCl, 1.8 mM CaCl2, 1 mM MgSO4, 25 mM glucose, 20 mM 4-(2-hydroxyethyl)-1-piperazineethanesulfonic acid [HEPES], 58 mM sucrose). A range of [^3H]NMS concentrations (between 0 and 10 nM) were added to appropriate wells containing buffer or 10-µM atropine to determine total and nonspecific binding in 100 µL of final-volume binding buffer. Plates were incubated for 2 h at 37 °C and the reactions were terminated by removal of the binding mixture followed by 3 × 200 µL/well ice-cold NaCl 0.9% washes. We added 100 µL/well of Microscint-20, and the plates were sealed before overnight incubation at room temperature on a rapidly shaking platform. Bound ligand was determined using a Packard Topcount NXT (Perkin-Elmer Life Sciences).

[2] = biological target: muscarinic receptor (total muscarinic-receptor subtypes); assay: [^3H]NMS saturation binding on membrane preparations of cortex and hippocampus; design: species or system mice; details: mean ± SD, five animals
Text: We performed [^3H]NMS-binding studies on membrane preparations as described previously ([20]).

## C[N+](C)(C)CCOC(N)=O [carbachol]
[1]; cells from M1-KO mice
  elevation of [Ca^2+]: did not promote a large increase of [Ca^2+]
[1]; neuronal cultures from WT and homozygous M1-mEGFP mice
  elevation of [Ca^2+]: promoted elevation of [Ca^2+]
[1]; neurons from M1-mEGFP mice, mean ± SD
  percentage of tested cells that responded to carbachol: 36.7% ± 4.0%
[1]; neurons from WT mice
  percentage of tested cells that responded to carbachol: 26.8% ± 3.4%

## C=C1C(=O)N[C@@H](C)C(=O)N(C)[C@@H](C)C(=O)N[C@@H]([C@H](OC(=O)[C@@H](NC(=O)CC)[C@H](O)C(C)C)C(C)C)C(=O)N(C)[C@@H]([C@@H](C)OC)C(=O)O[C@H](C(C)C)[C@H](NC(C)=O)C(=O)O[C@H](Cc2ccccc2)C(=O)N1C [FR900359] (Ac-[X1][dPhLac][NMeDha]A[NMeA][X1](Leu(3R-OH,Nα-propionyl))[NMeT](Me); ester 1-C)
[1]; pretreatment with 1 µM FR900359 for 30 min, P < 0.001
  effect on carbachol-induced elevation of [Ca^2+]: prevented

## O=C(CCCN1CCC2(CC1)C(=O)NCN2c1ccccc1)c1ccc(F)cc1 [spiperone]
D3 dopamine receptor
  effect on dimers of the D3 dopamine receptor: destabilize dimers of the D3 dopamine receptor

## CC1(C)CN2C(CSC(=NC3CCCCC3)NC3CCCCC3)=CSC2=N1 [IT1t]
Chemokine CXCR4
  effect on dimers of CXCR4: disrupt dimers of the chemokine CXCR4

## Nc1ncnc2c1ncn2[C@@H]1O[C@H](COP(=O)(O)OP(=O)(O)OP(=O)(O)O)[C@@H](O)[C@H]1O [adenosine triphosphate]
[1]; 10 μM ATP added after carbachol, cells from M1-KO mice
  elevation of intracellular [Ca^2+]: able to elicit rapid elevation of intracellular [Ca^2+]

## O=C(CCCN1CCC(O)(c2ccc(Cl)cc2)CC1)c1ccc(F)cc1 [haloperidol]
D3 dopamine receptor
  effect on dimers of the D3 dopamine receptor: destabilize dimers of the D3 dopamine receptor

Source: publication PMC9214538, “The M1 muscarinic receptor is present in situ as a ligand-regulated mixture of monomers and oligomeric complexes” (Proceedings of the National Academy of Sciences of the …, 2022)
